Paper PMC5201116, “Bioactive Flavonoids and Catechols as Hif1 and Nrf2 Protein Stabilizers - Implications for Parkinson’s Disease” (Aging and Disease, 2016)
Like-named read-outs stand apart in the source and are kept apart here.

Assays:
[1] = system: HIF1 ODD-luc reporter (SH-SY5Y cell line); assay: HIF1 ODD-luc reporter assay; assay type: cell-based; details: for fold induction at 10 µM: 3 h, 3 h incubation, read-out: ODD-luc fold activation
Description: (§1) SH-SY5Y cell lines stably expressing HIF1 ODD-luc or Neh2-luc reporters were grown in the DMEM/F12 supplemented with GlutaMAX (Thermo Fisher Scientific) containing 10% FBS, 100 U/ml penicillin, and 100 μg/ml streptomycin and plated into 384-well white flat-bottom plates at 7,000 cell/well in 30 µl serum and incubated overnight at 37°C, 5% CO2. The next day compounds were added to a final concentration of 10 µM and the plates were incubated for 3 hours at 37°C. Reporter activation after 3 h incubation with the studied compound was compared to that for ciclopirox (HIF1 ODD-luc reporter) or TBHQ (Neh2-luc reporter), taken as 100%. Luciferase reporter activity was measured with a SteadyGlo reagent from Promega providing stable reading for 1 h.
(§2) Cells were plated at the density of 25,000 cell per well using a WellMate multichannel dispenser from Matrix (Thermo Fisher Scientific, Waltham, MA) and grown overnight on DMEM/F12+GlutaMAX (100 µl per well). Then an inhibitor was added, and the plates were incubated for a fixed time interval; the medium was removed, cells lysed, and luciferase activity was measured on a SpectraMax M5e platereader (Molecular Devices, Sunnyvale, CA) with BrightGlo™ reagent (Promega, Madison, WI). The reporter activation was normalized to the background luminescence. The effect of 0.5 mM N-acetylcysteine (NAC) was studied by simultaneous addition of 5 µL of 10 mM stock of NAC in water and 2 µL of 50x stock solutions of a flavonoid in DMSO.

[2] = system: HRE-luciferase reporter (HT22 hippocampal cell line); assay: HRE-luc reporter assay; assay type: cell-based; details: for fold induction at 10 µM: Mus musculus, HT-22, 3 h, read-out: HRE-luc fold activation
Source text: A promoter-reporter construct that contained 68 bp of a known hypoxia and HIF-1 regulated gene, enolase, containing a wild type hypoxia response element (HRE, 5’-RCTGT-3’), is a widely used approach for screening for HIF activators of different mechanism of action. A cell-based assay with HRE-luciferase reporter system is based on transfected immortalized hippocampal cell line (HT22) and allows screening for a broad spectrum of compounds that include: activators of HIF transcription; activators of HIF binding to HRE; and effectors of HIF protein stability (PHD inhibitors, pVHL & proteasome inhibitors). The assay was performed the same way as for HIF ODD-luc reporter except the cells were plated at the density of 10,000 cell per well and incubated overnight.

[3] = system: Neh2-luc reporter (SH-SY5Y cell line); assay: Neh2-luc reporter assay; assay type: cell-based; details: for EC50 / fold induction at 10 µM: Homo sapiens, SH-SY5Y; for EC50: Neh2-luc; for fold induction at 10 µM: read-out: Neh2-luc fold activation
Description: as §1, §2

[4] = Iron binding constant, calcein displacement assay; assay type: physicochemical; details: calcein displacement
Source text: Calcein displacement assay in the presence of varied concentrations of flavonoids and catechols has been used. Calcein release from its complex with iron was monitored by fluorescence as described in [26].

[5] = Non-enzymatic ferricyanide reduction rate constant; assay type: physicochemical; details: 1 mM ferricyanide, pH 7.0
Description: The rate of ferricyanide reduction by individual flavonoids was measured spectrophotometrically at 420 nm with the fixed concentration of ferricyanide (1 mM) and varied concentrations of a flavonoid in Potassium-phosphate buffer, pH 7.0. The rate constant for direct ferricyanide reduction was calculated from the slope of the dependence reaction rate vs flavonoid concentration and used as a measure of flavonoid non-specific reducing power.

[6] = design: method as in PMID 17112238; details: cited from earlier work
HIF PHD2 = details: read-out: HIF PHD2 apparent inhibition constant; cited from earlier work
[7] = system: rotenone-induced hemiparkinsonian rats; design: method as in PMID 23357119; details: 25-75 mg/kg twice a day for 4 days; cited from earlier work
[8] = biological target: T1, Rabbit Reticulocyte 15-LOX-1 (Oryctolagus cuniculus, UniProt P12530); assay: Rabbit LOX 12/15 (rabbit reticulocyte 15-LOX-1) activity; assay type: biochemical; details: compounds at 25 µM, Fig. 4A
T1 sequence (P12530 1-663): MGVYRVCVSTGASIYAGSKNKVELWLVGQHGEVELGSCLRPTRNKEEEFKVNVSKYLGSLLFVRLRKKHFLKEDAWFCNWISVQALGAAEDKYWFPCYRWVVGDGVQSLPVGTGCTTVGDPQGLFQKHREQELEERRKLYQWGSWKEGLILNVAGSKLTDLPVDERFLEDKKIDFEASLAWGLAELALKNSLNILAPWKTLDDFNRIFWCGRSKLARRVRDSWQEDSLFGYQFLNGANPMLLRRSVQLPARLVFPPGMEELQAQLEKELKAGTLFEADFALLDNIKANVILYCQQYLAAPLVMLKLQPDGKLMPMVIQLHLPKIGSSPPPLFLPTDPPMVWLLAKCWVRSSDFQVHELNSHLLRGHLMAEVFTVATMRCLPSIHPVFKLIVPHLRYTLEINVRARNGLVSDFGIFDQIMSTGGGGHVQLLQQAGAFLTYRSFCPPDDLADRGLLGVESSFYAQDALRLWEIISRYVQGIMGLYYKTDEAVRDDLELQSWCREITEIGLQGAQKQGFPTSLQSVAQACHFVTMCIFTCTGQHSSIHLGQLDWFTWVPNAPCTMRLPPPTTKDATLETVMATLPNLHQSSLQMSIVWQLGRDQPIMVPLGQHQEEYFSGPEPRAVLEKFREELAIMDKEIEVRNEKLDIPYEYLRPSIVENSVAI
Description: The activity of the purified enzyme was measured in the end-point in vitro assay of arachidonic acid oxidation following the formation of fluorescent diphenyl-1-pyrenylphosphine oxide. DMSO was used as a control.

[9] = system: primary neuronal cultures treated with 5 mM HCA; assay: Glutathione depletion (HCA) model, MTT viability; assay type: cell-based, rat; details: glutathione depletion model, Fig. 5
Description: Primary neuronal cultures were prepared from the forebrains of Sprague-Dawley rat embryos (E17) and plated on 96 well plates at a 10^6 cells/ml density. After 24 hours, cells were rinsed with warm PBS and then placed in minimum Essential Medium (MEM; Life Technologies, Grand Island, NY) containing 5 mM HCA in the presence of a compound of interest at varied concentrations. Cells were incubated for 24 h or longer to see 90% cell death in HCA treated controls. Viability was assessed by the MTT (4,5-dimethylthiazol-2-yl)-2,5-diphenyltetrazolium bromide) assay.

HIF prolyl hydroxylase = biological target: HIF prolyl hydroxylase; design: method as in PMID 3011801; details: enzyme in vitro assay; read-out: enzyme inhibition constant; cited from earlier work

| Compound | EC50 ([1]; Homo sapiens, SH-SY5Y) | fold induction at 10 µM ([1]; Homo sapiens, SH-SY5Y) | fold induction at 10 µM [2] | EC50 [3] | fold induction at 10 µM ([3]; at 10 µM, 3 h incubation) | effect of NAC on Neh2-luc reporter activation ([3]; simultaneous addition of 0.5 mM NAC, results not shown) | Iron complex Diss. Const [4] | FC red Rate Const [5] | EHOMO [6] | Ki (HIF PHD2) | neuroprotection in rotenone model [7] | LOX inhibition [8] | concentration at which neuroprotection begins [9] | ODD-luc: concentration above which active [1] | ODD-luc: concentration above which active ([1]; listed as DHB) | HRE-luc: concentration above which active [2] | Neh2-luc fold activation ([3]; at 10 µM, 3 h incubation) | Ki (HIF prolyl hydroxylase) |
| --- | --- | --- | --- | --- | --- | --- | --- | --- | --- | --- | --- | --- | --- | --- | --- | --- | --- | --- |
| O=c1c(O)c(-c2ccc(O)c(O)c2)oc2cc(O)cc(O)c12 [compound 11, Quercetin] | ~2.5 µM | 1.5 ± 0.2 | 2 ± 0.2 | 2 µM | 24 ± 3 | no effect | 2.7 ± 0.3 µM | 366000 ± 39000 M⁻¹ s⁻¹ | -8.72 eV | 10 µM | neuroprotective |  |  |  |  |  |  |  |
| O=c1cc(-c2ccc(O)c(O)c2)oc2cc(O)cc(O)c12 [compound 18, Luteolin] |  | 2.5 ± 0.3 | 2 ± 0.25 | 2 µM | 5 ± 0.6 |  | 3.5 ± 0.4 µM | 130000 ± 15000 M⁻¹ s⁻¹ | -9.09 eV |  |  | equipotent as LOX inhibitors | 1.2 µM |  |  |  |  |  |
| CCOC(=O)c1ccc(O)c(O)c1 [compound 32, Ethyl 3,4-dihydroxybenzoate, reference compound] |  |  |  | 20 µM |  |  | 2.5 ± 0.3 µM |  |  |  |  |  |  | Active above 50 µM | above 50 µM | Active above 20 µM | Inactive | 5 µM |
